Measured values from US8536332B2, “Modulating signal transduction pathways with substituted pyridol [2,3-b] pyrazines” (Aeterna Zentaris GmbH, priority 2007, dated 2013).

Q: Which melting point does the source give for CCNC(=O)Nc1ccc2ncc(-c3cc(C)cc(Br)c3OCc3ccccc3)nc2n1 [Compound 109, 1-[3-(2-Benzyloxy-3-bromo-5-methyl-phenyl)-pyrido[2,3-b]pyrazin-6-yl]-3-ethyl-urea] here?
A: 236 to 238 °C

Q: For CCCNC(=S)Nc1ccc2ncc(Nc3cc(OC)c(OC)c(OC)c3)nc2n1 [Compound 501, 1-Propyl-3-[3-(3,4,5-trimethoxy-phenylamino)-pyrido[2,3-b]pyrazin-6-yl]-thiourea], which melting point is on record?
A: 243 °C

Q: For CCNC(=O)Nc1ccc2ncc(-c3ccc(NC(C)=O)c(OC)c3)nc2n1 [Compound 77, N-{4-[6-(3-Ethyl-ureido)-pyrido[2,3-b]pyrazin-3-yl]-2-methoxy-phenyl}-acetamide], which melting point is on record?
A: > 300 °C

Q: Which melting point does the source give for CCNC(=O)Nc1ccc2ncc(-c3ccc(OP(=O)([O-])[O-])c(OC)c3)nc2n1.[Na+].[Na+] here?
A: > 350 °C

Q: For CCNC(=O)Nc1ccc2ncc(-c3cc(C)c(C)c(C)c3)nc2n1 [Compound 151, 1-Ethyl-3-[3-(3,4,5-trimethyl-phenyl)-pyrido[2,3-b]pyrazin-6-yl]-urea], which melting point is on record?
A: 228 to 233 °C

Q: For COc1cc(-c2ccc3ncc(NC(=O)Nc4cccc5c4ccn5C)nc3n2)ccc1O [Compound 621, 1-[6-(4-Hydroxy-3-methoxy-phenyl)-pyrido[2,3-b]pyrazin-3-yl]-3-(1-methyl-1H-indol-4-yl)-urea], which melting point is on record?
A: 248 to 251 °C

Q: With CCNC(=O)Nc1ccc2ncc(-c3ccc(F)cc3OCC)nc2n1 [Compound 112, 1-[3-(2-Ethoxy-4-fluoro-phenyl)-pyrido [2,3-b]pyrazin-6-yl]-3-ethyl-urea] as the compound, how does the melting point read?
A: 229 to 231 °C

Q: With CC(=O)Nc1ccc2ncc(Nc3cccc(OC(C)C)c3)nc2n1 [Compound 36, N-[3-(3-Isopropoxy-phenylamino)-pyrido[2,3-b]pyrazin-6-yl]-acetamide] as the compound, how does the melting point read?
A: 177 °C

Q: Which melting point does the source give for CCNC(=O)Nc1ccc2ncc(Nc3ccc(OC)c(O)c3)nc2n1 [Compound 156, 1-Ethyl-3-[3-(3-hydroxy-4-methoxy-phenylamino)-pyrido[2,3-b]pyrazin-6-yl]-urea] here?
A: 281 °C

Q: With COc1cc(Nc2cnc3ccc(NC(=S)NCc4ccco4)nc3n2)cc(OC)c1OC [Compound 708, 1-Furan-2-ylmethyl-3-[3-(3,4,5-trimethoxy-phenylamino)-pyrido[2,3-b]pyrazin-6-yl]-thiourea] as the compound, how does the melting point read?
A: 228 °C

Q: Which melting point does the source give for CCNC(=S)Nc1ccc2ncc(Nc3ccc(OC)c(Cl)c3)nc2n1 [Compound 159, 1-[3-(3-Chloro-4-methoxy-phenylamino)-pyrido[2,3-b]pyrazin-6-yl]-3-ethyl-thiourea] here?
A: 276 °C

Q: Which melting point does the source give for CC(C)NC(=O)Nc1cnc2ccc(-c3cc(Cl)c(O)c(Cl)c3)nc2n1 [Compound 552, 1-[6-(3,5-Dichloro-4-hydroxy-phenyl)-pyrido[2,3-b]pyrazin-3-yl]-3-isopropyl-urea] here?
A: 259 to 261 °C

Q: With CCNC(=O)Nc1ccc2ncc(-c3cccc(CO)c3)nc2n1 [Compound 115, 1-Ethyl-3-[3-(3-hydroxymethyl-phenyl)-pyrido[2,3-b]pyrazin-6-yl]-urea] as the compound, how does the melting point read?
A: 200 to 202 °C

Q: For CCNC(=O)Nc1ccc2ncc(-c3ccsc3)nc2n1 [Compound 141, 1-Ethyl-3-(3-thiophen-3-yl-pyrido[2,3-b]pyrazin-6-yl)-urea], which melting point is on record?
A: 250 °C

Q: For COc1cc(-c2ccc3ncc(NC(=O)NCCCCc4ccccc4)nc3n2)ccc1O [Compound 630, 1-[6-(4-Hydroxy-3-methoxy-phenyl)-pyrido[2,3-b]pyrazin-3-yl]-3-(4-phenyl-butyl)-urea], which melting point is on record?
A: 208 to 210 °C

Q: Which melting point does the source give for CCNC(=O)Nc1ccc2ncc(-c3ccc(F)c(F)c3)nc2n1 [Compound 95, 1-[3-(3,4-Difluoro-phenyl)-pyrido[2,3-b]pyrazin-6-yl]-3-ethyl-urea] here?
A: 259 to 262 °C

Q: With CCNC(=O)Nc1ccc2ncc(-c3c(F)cccc3OC)nc2n1 [Compound 137] as the compound, how does the melting point read?
A: 236 to 239 °C

Q: Which melting point does the source give for Cc1cc(-c2ccc3ncc(NC(=O)Nc4c(C)noc4C)nc3n2)cc(C)c1O [Compound 590, 1-(3,5-Dimethyl-isoxazol-4-yl)-3-[6-(4-hydroxy-3,5-dimethyl-phenyl)-pyrido[2,3-b]pyrazin-3-yl]-urea] here?
A: 242 to 244 °C

Q: Which melting point does the source give for CCNC(=O)Nc1ccc2ncc(-c3ccc(C(=O)OC)c(F)c3)nc2n1 [Compound 143, 4-[6-(3-Ethyl-ureido)-pyrido[2,3-b]pyrazin-3-yl]-2-fluoro-benzoic acid methyl ester] here?
A: 250 to 252 °C

Q: With COc1cc(Nc2cnc3ccc(NC(=S)NCCN4CCCCC4)nc3n2)cc(OC)c1OC [Compound 700, 1-(2-Piperidin-1-yl-ethyl)-3-[3-(3,4,5-trimethoxy-phenylamino)-pyrido[2,3-b]pyrazin-6-yl]-thiourea] as the compound, how does the melting point read?
A: 206 °C

Q: Which melting point does the source give for CCNC(=S)Nc1cnc2ccc(Nc3ccc(O)c(Cl)c3)nc2n1 [Compound 208, 1-[6-(3-Chloro-4-hydroxy-phenylamino)-pyrido[2,3-b]pyrazin-3-yl]-3-ethyl-thiourea] here?
A: 203 °C

Q: Which melting point does the source give for COc1cc(-c2ccc3ncc(NC(=O)NC4CCN(C(=O)OCc5ccccc5)CC4)nc3n2)ccc1O [Compound 606, 4-{3-[6-(4-Hydroxy-3-methoxy-phenyl)-pyrido[2,3-b]pyrazin-3-yl]-ureido}-piperidine-1-carboxylic acid benzyl ester] here?
A: 210 to 212 °C

Q: For CC(C)Oc1cccc(Nc2cnc3ccc(NC(=O)NC4CC4)nc3n2)c1 [Compound 49, 1-Cyclopropyl-3-[3-(3-isopropoxy-phenylamino)-pyrido[2,3-b]pyrazin-6-yl]-urea], which melting point is on record?
A: 134 °C

Q: Which melting point does the source give for COc1cc(Nc2cnc3ccc(NC(=S)NC4CCCCC4)nc3n2)cc(OC)c1OC [Compound 690, 1-Cyclohexyl-3-[3-(3,4,5-trimethoxy-phenylamino)-pyrido[2,3-b]pyrazin-6-yl]-thiourea] here?
A: 248 °C

Q: With CCNC(=O)Nc1cnc2ccc(Nc3ccc(C)cc3)nc2n1 [Compound 1, 1-Ethyl-3-(6-p-tolylamino-pyrido[2,3-b]pyrazin-3-yl)-urea] as the compound, how does the melting point read?
A: 235 °C

Q: With CCNC(=O)Nc1ccc2ncc(Nc3ccc(C)cc3C)nc2n1 [Compound 398, 1-[3-(2,4-Dimethyl-phenylamino)-pyrido[2,3-b]pyrazin-6-yl]-3-ethyl-urea] as the compound, how does the melting point read?
A: 210 °C

Q: With CCNC(=O)Nc1ccc2ncc(-c3cncn3C)nc2n1 [Compound 53, 1-Ethyl-3-[3-(3-methyl-3H-imidazol-4-yl)-pyrido[2,3-b]pyrazin-6-yl]-urea] as the compound, how does the melting point read?
A: 257 to 259 °C

Q: With O=C(Nc1cnc2ccc(-c3cc(Cl)c(O)c(Cl)c3)nc2n1)NC1CCCCC1 [Compound 558, 1-Cyclohexyl-3-[6-(3,5-dichloro-4-hydroxy-phenyl)-pyrido[2,3-b]pyrazin-3-yl]-urea] as the compound, how does the melting point read?
A: 272 to 275 °C

Q: Which melting point does the source give for CCNC(=O)Nc1cnc2ccc(Nc3cnc4ccccc4c3)nc2n1 [Compound 32, 1-Ethyl-3-[6-(quinolin-3-ylamino)-pyrido[2,3-b]pyrazin-3-yl]-urea] here?
A: 265 to 270 °C

Q: Which melting point does the source give for COc1cc(-c2ccc3ncc(NC(=O)N(C)c4ccc(C(C)C)cc4)nc3n2)ccc1O [Compound 635, 3-[6-(4-Hydroxy-3-methoxy-phenyl)-pyrido[2,3-b]pyrazin-3-yl]-1-(4-isopropyl-phenyl)-1-methyl-urea] here?
A: 226 to 228 °C

Q: Which melting point does the source give for CCNC(=S)Nc1ccc2ncc(Nc3ccc(-n4cncn4)cc3)nc2n1 [Compound 164, 1-Ethyl-3-[3-(4-[1,2,4]triazol-1-yl-phenylamino)-pyrido[2,3-b]pyrazin-6-yl]-thiourea] here?
A: 294 °C

Q: With COc1cc(-c2ccc3ncc(NC(=O)Nc4cccc([N+](=O)[O-])c4)nc3n2)ccc1O [Compound 618, 1-[6-(4-Hydroxy-3-methoxy-phenyl)-pyrido[2,3-b]pyrazin-3-yl]-3-(3-nitro-phenyl)-urea] as the compound, how does the melting point read?
A: 274 to 276 °C

Q: With COc1cc(-c2ccc3ncc(NC(=S)NC4CCCCC4)nc3n2)ccc1O [Compound 524, 1-Cyclohexyl-3-[6-(4-hydroxy-3-methoxy-phenyl)-pyrido[2,3-b]pyrazin-3-yl]-thiourea] as the compound, how does the melting point read?
A: 253 to 254 °C

Q: For CCNC(=O)Nc1ccc2ncc(-c3cnn(CC(C)C)c3)nc2n1 [Compound 59, 1-Ethyl-3-[3-(1-isobutyl-1H-pyrazol-4-yl)-pyrido[2,3-b]pyrazin-6-yl]-urea], which melting point is on record?
A: 189 to 191 °C

Q: Which melting point does the source give for CCNC(=S)Nc1cnc2ccc(Nc3ccc(C)c(OC)c3)nc2n1 [Compound 210, 1-Ethyl-3-[6-(3-methoxy-4-methyl-phenylamino)-pyrido[2,3-b]pyrazin-3-yl]-thiourea] here?
A: 148 °C

Q: With CCNC(=O)Nc1ccc2ncc(-c3ccc(C(=O)OC)cc3)nc2n1 [Compound 132, 4-[6-(3-Ethyl-ureido)-pyrido[2,3-b]pyrazin-3-yl]-benzoic acid methyl ester] as the compound, how does the melting point read?
A: 260 °C

Q: With CCNC(=O)Nc1ccc2ncc(-c3cc(C)cc(Br)c3OC)nc2n1 [Compound 110, 1-[3-(3-Bromo-2-methoxy-5-methyl-phenyl)-pyrido[2,3-b]pyrazin-6-yl]-3-ethyl-urea] as the compound, how does the melting point read?
A: 228 to 230 °C

Q: Which melting point does the source give for CCCNC(=O)Nc1cnc2ccc(-c3ccc(OC)c(OC)c3)nc2n1 [Compound 570, 1-[6-(3,4-Dimethoxy-phenyl)-pyrido[2,3-b]pyrazin-3-yl]-3-propyl-urea] here?
A: 246 to 248 °C

Q: Which melting point does the source give for CCNC(=O)Nc1ccc2ncc(-c3cc(C(C)=O)ccc3F)nc2n1 [Compound 79, 1-[3-(5-Acetyl-2-fluoro-phenyl)-pyrido[2,3-b]pyrazin-6-yl]-3-ethyl-urea] here?
A: 238.1 to 241.8 °C

Q: With CCNC(=S)Nc1cnc2ccc(Nc3cc(OC)c(OC)c(OC)c3)nc2n1 [Compound 200, 1-Ethyl-3-[6-(3,4,5-trimethoxy-phenylamino)-pyrido[2,3-b]pyrazin-3-yl]-thiourea] as the compound, how does the melting point read?
A: 238 °C

Q: Which melting point does the source give for CCNC(=O)Nc1ccc2ncc(-c3cc(C)c(OC)c(C)c3)nc2n1 [Compound 80, 1-Ethyl-3-[3-(4-methoxy-3,5-dimethyl-phenyl)-pyrido[2,3-b]pyrazin-6-yl]-urea] here?
A: 255.3 to 258.2 °C

Q: For COc1cc(-c2ccc3ncc(NC(=O)Nc4ccc(N5C(=O)C=CC5=O)cc4)nc3n2)ccc1O [Compound 622, 1-[4-(2,5-Dioxo-2,5-dihydro-pyrrol-1-yl)-phenyl]-3-[6-(4-hydroxy-3-methoxy-phenyl)-pyrido[2,3-b]pyrazin-3-yl]-urea], which melting point is on record?
A: 290 to 293 °C
